Data: patent US11785950B2, “Use of dried chicory root to protect poultry and livestock against ectoparasites or as insect repellant” (Cosucra Groupe Warcoing S.A., priority 2017, dated 2023)

How the values were obtained:
mites (Chorioptes bovis) = experiment: Comparative trial vs Amitraz: mite count in skin scraping samples; format: in vivo; conditions: week 4; 10 animals per group
From the text: (§1) Twenty Belgian Blue cattle (6 heifers and 14 cows) were used in this trial. Cattle with mild or severe visual signs of scabies infection were selected, tied, shaved, scored for scabies lesions (clinical index) and skin scraping samples were taken for counts of mites and lice. Next, the animals were divided into 2 groups, a control group and a treatment group, based on the results of the clinical index and mite—lice counts at the end of the pre-treatment phase. At the start of the treatment period, animals were housed in a tie-stable, shaved and tied to prevent physical contact with other animals.
(§2) Control group: The animals in the positive control group were treated according to the standard ILVO (Flecmish Institute for Agriculture and Fishery) scabies prevention protocol which consisted of treatment with Amitraz (Tactic) and removal of the crusts, followed by a second treatment with interval of 10 days between both treatments. After the second treatment crusts were not removed.
Treatment group: The animals in the treatment group were not treated with Amitraz (Tactic), but were fed the indicative daily dose of 200 g of dried chicory root composition per animal per day. […]
Using microscopy, the numbers of mites and lice in each sample were counted and the types of mites and lice were identified by an expert at the Laboratory of Parasitology, Ghent University, Belgium. […]

[1] = tested on: scabies (dominantly caused by the mite Chorioptes bovis); experiment: Comparative trial vs Amitraz: clinical index of scabies lesions; format: in vivo; design: key to clinical index, active lesions (4): % area with type 4 lesions = squares type 4/350*100; conditions: for clinical index, active lesions (4): week not given
From the text: The whole trial lasted for 15 weeks and was subdivided in […]: a pre-treatment period of 9 weeks, a treatment period of 3 weeks, and a 3 week post-treatment period.
The trial started with pre-treatment period of 9 weeks during which the animals were housed in a straw-bedded free stall and received no preventive treatment against scabies and lice. At the end of the pre-treatment period, the degree of scabies lesions (clinical index) and counts of mites and lice in skin-scraping samples were evaluated.
as §1, §2
Treatment group: The animals in the treatment group were not treated with Amitraz (Tactic), but were fed the indicative daily dose of 200 g of dried chicory root composition per animal per day. Said amount corresponds to roughly 1 to 2% of dried chicory root on the total feed. Dried chicory root composition was provided mixed through the daily dose of soybean meal and concentrate. The nutritional treatment with dried chicory root composition lasted for 3 consecutive weeks during which the animals receive their daily dose of dried chicory root composition. […]
In the last week of the pre-treatment period (week 0) and every following week till the end of the post-treatment period, the clinical index was determined as a measure for scabies lesions. Per animal, the number, size and type of scabies lesions was determined using a scoring form.
A distinction was made between dried, healing lesions (type 3) and wet, active lesions (type 4). The clinical index was calculated based on the total number of lesions using the formula: Area with lesions=total squares/350*100.
In addition, an alternative clinical index was calculated based on the number of active lesions: Area with lesions type 4=squares type 4/350*100. […]

In the case of `Cc1ccc(/N=C/N(C)/C=N/c2ccc(C)cc2C)c(C)c1` [Tactic, Amitraz], the “WBT samples positive for Chorioptes bovis” value (mites (Chorioptes bovis)) is reported as 3 samples, the “hock samples positive for Chorioptes bovis” value (mites (Chorioptes bovis)) is reported as “one” and the “clinical index, active lesions (4)” value ([1]; 3rd week pair of columns) is reported as 0.0. For the same molecule, the “clinical index, active lesions (4)” value ([1]; 4th week pair of columns) was 0.0, the “clinical index, active lesions (4)” value ([1]; 5th week pair of columns) was 0.0 and the “clinical index of Tactic group higher than that of dried chicory root group, 95% confidence maximum” value ([1]; equivalence test) was ≤ 15%.
